Consider 72 molecules from PubChem BioAssay AID179 (DTP/NCI, 2004).

The source made the active and inactive calls.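 The calls were made as follows: active = compounds giving half or more protection of infected cells from virus-caused growth loss, again on retest; inactive = the rest.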 Where a SMILES comes first, the peptide text is derived from it. The star is where a group is joined. Cbz = O=C(OCc1ccccc1)*

This experiment deals with CEM cells HIV-1 protection, formazan growth assay. Briefly: NCI AIDS Antiviral Assay. Conditions: for IC50: measured here: growth of uninfected CEM cells. In a few lines: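 Protection of CEM cells against HIV-1 was scored from cell growth (soluble formazan) across five concentrations, with parallel uninfected cells. Lack of protection may reflect toxicity.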

For the molecule `C=CCC1CC(n2cc(C)c(=O)[nH]c2=O)OC1CO[Si](C)(C)C(C)(C)C` (configuration not stated), the EC50 is over 200 µM and the IC50 was 18.2 µM. As to `CN(/N=C\c1ccccc1Cl)C(c1ccccc1Cl)N(C)/N=C/c1ccccc1Cl` (configuration not stated), the result was inactive. Consider `[N-]=[N+]=Nc1c(Cc2ccccc2)c(Cl)nc2ccccc12`, for which the EC50 was over 200 µM and the IC50 came to 19.1 µM. As to `C1CCCN(NC2=NCCO2)CC1`, the EC50 was 93.3 µM and the IC50 came to 1000 µM. Take `Oc1cccc2ccc(Br)nc12`: the EC50 is over 200 µM and the half-maximal inhibitory concentration (IC50) worked out at 178 µM. As to `COc1cc(/C=C/C(=O)c2c(=O)o[nH][n+]2-c2ccccc2)ccc1[O-]`, the result was inactive.

Turning to `Cc1ccc(S[C@@](C=O)(NC(=O)OCc2ccccc2)C(F)(F)F)cc1`, the outcome was inactive.

Turning to `OC(c1ccoc1)c1cc2ccccc2s1` (configuration not stated), the EC50 is over 200 µM and the half-maximal inhibitory concentration (IC50) worked out at 44.7 µM. As for `CC(=O)CCC#Cc1ccccc1C(=O)C(C)=[N+]=[N-]`, the EC50 is over 50.1 µM and the 50% inhibitory concentration (IC50) was over 50.1 µM. For `CC(=O)N/C(=C\c1ccc(/C=C(\NC(C)=O)c2nc3ccc(Cl)cc3[nH]2)cc1)c1nc2ccccc2[nH]1`, the outcome was inactive. On to `Cc1cc2nc3[nH]c4ccccc4c3nc2cc1C`, for which the EC50 is over 20.9 µM and the IC50 is over 20.9 µM. Consider `O=C(CCN1CCCCC1)Nc1ccc2c(c1)C(=O)c1ccc(NC(=O)CCN3CCCCC3)cc1C2=O`, for which the EC50 is over 200 µM and the IC50 turned out to be 1.86 µM. With `NC(CCCCCCCCCCP(=O)(O)O)C(=O)O` (configuration not stated), the EC50 was over 200 µM and the IC50 is over 200 µM. In the case of `O=C(O)CN(c1ccccc1)S(=O)(=O)c1ccc(Cl)cc1`, the result was inactive. Consider `COc1ccc(N(C)C(=O)N(C)c2ccc([N+](=O)[O-])cc2)cc1`, for which the EC50 is over 200 µM and the concentration for half-maximal inhibition (IC50) was found to be 9.33 µM.

For `C=CC[C@]1(C(C)C(OC(C)=O)c2ccc3c(c2)OCO3)C[C@@H](OC)C=CC1=O` (some centres not stated), the EC50 was over 20 µM and the IC50 amounted to 1.48 µM. As to `CCOC(=O)c1ccc(N=NC2Sc3nc4ccccc4n3C2=O)cc1` (configuration not stated), the outcome was inactive.

The molecule `CC(C)(C)c1ccc(OC(=O)Nc2ccc(O)c(C(=O)O)c2)cc1` showed an EC50 of over 200 µM and an IC50 of over 200 µM. For the molecule `CCC[CH2][Sn]([CH2]CCC)([O]C(=O)c1cc(F)cc(F)c1)[O][Sn]([CH2]CCC)([CH2]CCC)[O]C(=O)c1cc(F)cc(F)c1`, the EC50 is over 9.12 µM and the IC50 stood at 1.78 µM. In the case of `COC(=O)C(Cc1nc2ccc(Cl)cc2[nH]c1=O)/C(=N\N)C(=O)Nc1cc(C)c(Cl)cc1S(=O)(=O)O` (configuration not stated), the EC50 is over 447 µM and the half-inhibitory concentration (IC50) came out at 115 µM.

Take `CC(C)OC(=S)Nc1ccc(Cl)c(COC(C)(C)C)c1`: the concentration giving a half-maximal response (EC50) was 5.37 µM and the half-inhibitory concentration (IC50) came out at 31.6 µM.

On to `O=C(N/N=C/c1ccccc1O)c1ccccc1O`, for which the EC50 was over 20 µM and the IC50 is 2.34 µM. `COc1ccc(SCc2cc(OCc3ccccc3)c(OCc3ccccc3)c(OCc3ccccc3)c2)cc1`: the EC50 was over 200 µM and the IC50 is over 200 µM. With `C/C(CC(O)(C(F)(F)F)C(F)(F)F)=N\O`, the EC50 is over 200 µM and the half-inhibitory concentration (IC50) is over 200 µM. For `O=C(O)[C@@H]1CSC(c2ccncc2)N1` (some centres not stated), the EC50 was over 200 µM and the IC50 is over 200 µM. As for `O=Nn1cc(-c2cc3ccccc3n2N=O)c2ccccc21`, the EC50 is over 200 µM and the IC50 was determined as 97.7 µM. As for `CC1C(c2cc(C(C)(C)C)c(O)c(C(C)(C)C)c2)c2cc3c(cc2OC1N1CCOCC1)OCO3` (configuration not stated), the EC50 is over 200 µM and the IC50 was over 200 µM.

Consider `CS(=O)(=O)OCCN(CCOS(C)(=O)=O)c1ccc(C=Nc2ccc3oc(=O)ccc3c2)cc1`, for which the EC50 is over 135 µM and the IC50 was 1.02 µM.

As for `CC1=NN(c2ccccc2)C(=O)C1N=Nc1ccc(S(=O)(=O)Nc2nccc(C)n2)cc1` (configuration not stated), the result was inactive. With `COc1ccc(-c2c(N)cnc(C(=O)O)c2C)c(O)c1OC`, the outcome was inactive. Consider `O=c1[nH]c2ccccc2c(O)c1-[n+]1ccccc1`, for which the EC50 is over 200 µM and the IC50 is over 200 µM. In the case of `Nn1c(Cc2ccccc2)nnc1Cc1ccccc1`, the EC50 is over 200 µM and the IC50 is over 200 µM.

Take `Cc1c2cc[nH]c(=O)c2cc2c(=O)c3cnccc3[nH]c12`: the EC50 was over 1.95 µM and the IC50 was over 1.95 µM. On to `CCN(CC)CCNc1c(OC)c(OC)cc2nccnc12`, for which the EC50 was over 200 µM and the IC50 was 64.6 µM. Regarding `Cc1cccc2c1CC(C1OC(=O)c3ccccc31)C2=O` (configuration not stated), the EC50 is over 100 µM and the IC50 was over 100 µM. In the case of `CC1(C)OCC2OC3(c4nc(C#N)c(N)o4)OC(C)(C)OC3C2O1` (configuration not stated), the EC50 is over 50.1 µM and the IC50 is over 50.1 µM. `CCOC(=O)C(Cc1ccc2c(c1)CCC2)(Cc1ccc2c(c1)CCC2)C(=O)OCC`: the EC50 was over 200 µM and the IC50 is 69.2 µM. On to `O=C(O)c1ccccc1SSC(=S)N1CCOCC1`, for which the EC50 is over 0.02 µM and the IC50 was 0.000759 µM. Regarding `Brc1ccc2c(-c3csc(-c4c[nH]c5ccccc45)n3)c[nH]c2c1`, the EC50 is over 200 µM and the concentration for half-maximal inhibition (IC50) was determined as 10.7 µM. On the same counts, the results for `COc1c(C)c(C/C=C(\C)CC/C=C(\C)CCC=C(C)C)c(OC)c(OC)c1OC` are over 200 µM and over 200 µM. In the case of `O=C(CCSSc1ccccn1)ON1C(=O)CCC1=O`, the EC50 was over 50.1 µM and the IC50 is over 50.1 µM. For the molecule `CC1(C)N=C(C(N)=O)c2ncn(N)c2N1`, the EC50 was over 200 µM and the IC50 was over 200 µM. As for `CCOC(=O)CC(NC(=O)C(CC(=O)OC)NC(=O)C(CC(=O)OC)NC(=O)C(CC(=O)OC)NC(=O)C(CC(=O)OC)NC(=O)C(CC(=O)OC)NC(=O)C(CC(=O)OC)NC(=O)C(CC(=O)OC)NC(=O)OCc1ccccc1)C(=O)OCC` (configuration not stated) (Cbz-D(OMe)D(OMe)D(OMe)D(OMe)D(OMe)D(OMe)D(OMe)D(OEt)-OEt; configuration not given here), the EC50 was over 100 µM and the IC50 was over 100 µM. With `Cc1ccc(NC(=O)CSc2nnc(-c3ccc(N=Cc4ccc(Cl)cc4)cc3)o2)cc1`, the EC50 is over 282 µM and the IC50 came to 145 µM.

For `S=c1nnn(C2CCCN2)[nH]1` (configuration not stated), the EC50 was over 200 µM and the IC50 is over 200 µM. Regarding `Cc1oc(C)c2c1C(=O)c1ccccc1C2=O`, the EC50 was over 200 µM and the IC50 was 123 µM. `Cc1ccc(S(=O)(=O)NCCSS(=O)(=O)c2ccc(C)cc2)cc1`: the EC50 is over 25.7 µM and the IC50 is over 25.7 µM. Consider `CN1COc2ccc(Br)cc2C1`, for which the outcome was inactive. Regarding `COC1=NC(NC2OCC(O)C(O)C2O)=C(NC(C)=O)CN1C` (configuration not stated), the EC50 was over 200 µM and the IC50 is over 200 µM. With `CCOC(=O)c1c2c(n3ccc(C)cc13)C(=O)C(c1ccc([N+](=O)[O-])cc1)S2` (configuration not stated), the outcome was inactive. Turning to `Nc1nc(O)c2ncn([C@H]3CC[C@@H](CO)O3)c2n1`, the EC50 was 1.74 µM and the IC50 was over 200 µM. The matching figures for `CN1C2CCC1CC(OC(=O)C1CCC(C(=O)OC3CC4CCC(C3)N4C)(c3ccccc3)c3ccccc31)C2` (configuration not stated): over 200 µM and 6.46 µM. Consider `COC(=O)[C@@H]1CCCN1CCN1CCC[C@H]1C(=O)OC`, for which the EC50 was over 200 µM and the IC50 is over 200 µM. Regarding `CC(C)(C)OC(=O)N1Cc2cc(O)ccc2C[C@H]1C(=O)O`, the EC50 is over 200 µM and the IC50 is over 200 µM.

In the case of `CC1=CP(=O)(c2ccccc2)CC1` (configuration not stated), the EC50 was 0.0631 µM and the IC50 is over 200 µM. The matching figures for `CN(C)Cc1cc(N=Nc2ccc(Cl)cc2)ccc1O`: over 20 µM and 13.5 µM. As to `Cc1ccc(Cc2n[nH]c(=O)n2Nc2ccccc2)cc1`, the EC50 is over 200 µM and the IC50 was over 200 µM. As for `CCC(=O)C(CCN1CCC(n2c(=O)[nH]c3ccccc32)CC1)(c1ccccc1)c1ccccc1`, the EC50 was over 200 µM and the IC50 came out at 19.1 µM. For the molecule `CCCCc1c2c(nc3c1CC/C(=C\c1ccccc1)C3=O)CCCC2`, the EC50 was over 4.17 µM and the IC50 is 3.31 µM. Consider `CN1N=Nc2ccccc2C1(O)c1ccc(F)cc1` (configuration not stated), for which the EC50 is over 200 µM and the half-inhibitory concentration (IC50) was over 200 µM. With `CCOC(=O)c1cc2cc(C)cc(C(=O)c3ccc([N+](=O)[O-])cc3)c2[nH]1`, the EC50 was over 200 µM and the IC50 was over 200 µM.

Regarding `NC(=O)Cc1nc2c(N)ncnc2n1C1OC(CO)C(O)C1O` (configuration not stated), the EC50 is over 200 µM and the IC50 was over 200 µM. Consider `CCC12C=CCN3CCC4(c5cc(C6(C(=O)OC)CCCCCc7c6[nH]c6ccccc76)c(OC)cc5N(C)C4C(O)(C(=O)OC)C1OC(C)=O)C32` (configuration not stated), for which the EC50 is over 25.1 µM and the IC50 amounted to 4.37 µM. On to `O=c1ccc2cc3ccoc3c(O)c2o1`, for which the EC50 was over 447 µM and the IC50 was found to be 135 µM. As for `Cc1ccc(NC(=O)CCc2nnc3s/c(=C\C=C\c4ccccc4)c(=O)n23)cc1`, the EC50 is over 61.7 µM and the IC50 was over 61.7 µM.

On to `CN(C)C(=S)OC(Cn1cncn1)c1ccc(Cl)cc1Cl` (configuration not stated), for which the EC50 is over 513 µM and the IC50 worked out at 427 µM. Regarding `NS(=O)(=O)c1ccc2c(c1)OCCOCCOCCOCCO2`, the EC50 was over 200 µM and the IC50 is over 200 µM.

Turning to `O=C1C2CCN(CC2)C1CN1CCOCC1` (configuration not stated), the outcome was inactive. Consider `C=C1CC(C)(COc2ccc3ccc(=O)oc3c2)OC1=O` (configuration not stated), for which the EC50 was over 20 µM and the IC50 stood at 0.275 µM. On the same counts, the results for `CCOC(=O)/C(O)=C(/C=N/C(=S)Nc1c(CC)cccc1CC)C(=O)OCC` are over 200 µM and 110 µM. Take `O=C(NCCCN(CCCCN(CCCNC(=O)C(F)(F)F)Cc1ccccc1)Cc1ccccc1)C(F)(F)F`: the EC50 is over 200 µM and the IC50 worked out at 37.2 µM. Take `CCC(C)[C@H](NC(=O)[C@H](Cc1ccccc1)NC(=O)N(CC)c1ccccc1)C(=O)N[C@@H](CC(C)C)C(=O)OC` (some centres not stated): the outcome was inactive.
